{
  "source": "ChEMBL document CHEMBL4715874",
  "about": "“In Vivo Screening of Xanthones from Garcinia oligantha Identified Oliganthin H as a Novel Natural Inhibitor of Convulsions” (J Nat Prod, 2020)",
  "key": {"Danio rerio [1]": {"species": "Danio rerio", "test": "Anticonvulsant activity in AB zebra fish larvae assessed as PTZ-induced number of burst at 6.2 uM pretreated for 6 hrs followed by PTZ-stimulation and measured every 5 mins for 30 mins (reference value: 9.25 +/- 6.36)", "type": "functional", "settings": "time 6.5 hrs"}, "Danio rerio [2]": {"species": "Danio rerio", "test": "Anticonvulsant activity in AB zebra fish larvae assessed as PTZ-induced number of burst at 25 uM pretreated for 6 hrs followed by PTZ-stimulation and measured every 5 mins for 30 mins (reference value: 9.25 +/- 6.36)", "type": "functional", "settings": "time 6.5 hrs"}, "[3]": {"test": "Ratio of MTC for toxicity in AB zebra fish larvae to lowest observed effect concentration for Anticonvulsant activity in AB zebra fish larvae assessed as reduction in PTZ-induced convulsant behavior", "set-up": "species or system Danio rerio"}, "[4]": {"test": "Effect of PRKACAB mRNA expression in AB zebra fish larvae at 25 uM after 6 hrs by qRT-PCR analysis (reference value: 1 +/- 0.03%)", "type": "ADME, Danio rerio", "settings": "zebrafish"}, "[5]": {"test": "Neurotoxicity in AB zebra fish larvae assessed as decrease in total swimming distance at <= MTC after 6 hrs", "type": "toxicity, Danio rerio", "settings": "zebrafish"}, "Danio rerio [6]": {"species": "Danio rerio", "test": "Anticonvulsant activity in AB zebra fish larvae assessed as reduction in PTZ-induced convulsant behavior by measuring swimming distance at 12.5 uM pretreated for 6 hrs followed by PTZ-stimulation and measured every 5 mins for 1 hr relative to control", "type": "functional", "set-up": "scale not given: the % may be the effect or the level left", "settings": "time 7 hrs"}, "Danio rerio [7]": {"species": "Danio rerio", "test": "Anticonvulsant activity in AB zebra fish larvae assessed as reduction in PTZ-induced convulsant behavior by measuring lowest observed effect concentration pretreated for 6 hrs followed by PTZ-stimulation and measured every 5 mins for 1 hr", "type": "functional", "settings": "time 7 hrs"}, "[8]": {"test": "Neurotoxicity in AB zebra fish larvae assessed as increase in total swimming distance at > 12.5 uM after 6 hrs", "type": "toxicity, Danio rerio", "settings": "zebrafish"}, "Danio rerio [9]": {"species": "Danio rerio", "test": "Anticonvulsant activity in AB zebra fish larvae assessed as PTZ-induced npas4a mRNA expression at 25 uM pretreated for 6 hrs followed by PTZ-stimulation and measured after 30 mins by qRT-PCR analysis (reference value: 25.34 +/- 3.28%)", "type": "functional", "settings": "time 6.5 hrs"}, "Danio rerio [10]": {"species": "Danio rerio", "test": "Anticonvulsant activity in AB zebra fish larvae assessed as PTZ-induced pvalb5 mRNA expression at 25 uM pretreated for 6 hrs followed by PTZ-stimulation and measured after 30 mins by qRT-PCR analysis (reference value: 0.59 +/- 0.52%)", "type": "functional", "settings": "time 6.5 hrs"}, "[11]": {"test": "Effect of calb2 mRNA expression in AB zebra fish larvae at 25 uM after 6 hrs by qRT-PCR analysis (reference value: 1.02 +/- 0.33%)", "type": "ADME, Danio rerio", "settings": "zebrafish"}, "Danio rerio [12]": {"species": "Danio rerio", "test": "Anticonvulsant activity in AB zebra fish larvae assessed as PTZ-induced number of burst at 12.5 uM pretreated for 6 hrs followed by PTZ-stimulation and measured every 5 mins for 30 mins (reference value: 9.25 +/- 6.36)", "type": "functional", "settings": "time 6.5 hrs"}, "Danio rerio [13]": {"species": "Danio rerio", "test": "Anticonvulsant activity in AB zebra fish larvae assessed as PTZ-induced gabra1 mRNA expression at 25 uM pretreated for 6 hrs followed by PTZ-stimulation and measured after 30 mins by qRT-PCR analysis (reference value: 19.68 +/- 3.28%)", "type": "functional", "settings": "time 6.5 hrs"}, "[14]": {"test": "Effect of gad1 mRNA expression in AB zebra fish larvae at 25 uM after 6 hrs by qRT-PCR analysis (reference value: 1 +/- 0.11%)", "type": "ADME, Danio rerio", "settings": "zebrafish"}, "Danio rerio [15]": {"species": "Danio rerio", "test": "Anticonvulsant activity in AB zebra fish larvae assessed as PTZ-induced velocity at 6.2 uM pretreated for 6 hrs followed by PTZ-stimulation and measured every 5 mins for 30 mins (reference value: 0.63 +/- 0.23 mm/s)", "type": "functional", "settings": "time 6.5 hrs"}, "Danio rerio [16]": {"species": "Danio rerio", "test": "Anticonvulsant activity in AB zebra fish larvae assessed as PTZ-induced c-fos mRNA expression at 25 uM pretreated for 6 hrs followed by PTZ-stimulation and measured after 30 mins by qRT-PCR analysis (reference value: 8.91 +/- 0.54%)", "type": "functional", "settings": "time 6.5 hrs"}, "[17]": {"test": "Effect of GLULA mRNA expression in AB zebra fish larvae at 25 uM after 6 hrs by qRT-PCR analysis (reference value: 1.02 +/- 0.29%)", "type": "ADME, Danio rerio", "settings": "zebrafish"}, "Danio rerio [18]": {"species": "Danio rerio", "test": "Anticonvulsant activity in AB zebra fish larvae assessed as PTZ-induced seizure duration time at 6.2 uM pretreated for 6 hrs followed by PTZ-stimulation and measured every 5 mins for 30 mins (reference value: 0.32 +/- 0.31 s)", "type": "functional", "settings": "time 6.5 hrs"}, "[19]": {"test": "Effect of GLSA mRNA expression in AB zebra fish larvae at 25 uM after 6 hrs by qRT-PCR analysis (reference value: 1 +/- 0.18%)", "type": "ADME, Danio rerio", "settings": "zebrafish"}, "Danio rerio [20]": {"species": "Danio rerio", "test": "Anticonvulsant activity in AB zebra fish larvae assessed as PTZ-induced gad1 mRNA expression at 25 uM pretreated for 6 hrs followed by PTZ-stimulation and measured after 30 mins by qRT-PCR analysis (reference value: 5.45 +/- 1.77%)", "type": "functional", "settings": "time 6.5 hrs"}, "[21]": {"test": "Effect of BDNF mRNA expression in AB zebra fish larvae at 25 uM after 6 hrs by qRT-PCR analysis (reference value: 1.01 +/- 0.21%)", "type": "ADME, Danio rerio", "settings": "zebrafish"}, "[22]": {"test": "Effect of ABAT mRNA expression in AB zebra fish larvae at 25 uM after 6 hrs by qRT-PCR analysis (reference value: 1 +/- 0.11%)", "type": "ADME, Danio rerio", "settings": "zebrafish"}, "Danio rerio [23]": {"species": "Danio rerio", "test": "Anticonvulsant activity in AB zebra fish larvae assessed as PTZ-induced ABAT mRNA expression at 25 uM pretreated for 6 hrs followed by PTZ-stimulation and measured after 30 mins by qRT-PCR analysis (reference value: 2.16 +/- 1.2%)", "type": "functional", "settings": "time 6.5 hrs"}, "[24]": {"test": "Effect of c-fos mRNA expression in AB zebra fish larvae at 25 uM after 6 hrs by qRT-PCR analysis (reference value: 1.06 +/- 0.52%)", "type": "ADME, Danio rerio", "settings": "zebrafish"}, "[25]": {"test": "Toxicity in AB zebra fish larvae assessed as mortality at 100 uM after 6 hrs", "set-up": "species or system Danio rerio", "settings": "zebrafish"}},
  "data": [
    {"compound": "CC(C)=CCC/C(C)=C/C[C@@]1(CC=C(C)C)C(=O)C(O)=C(O)c2oc3c4c(cc(O)c3c(=O)c21)OC(C)(C)C=C4", "values": [
      {"measurement": "Activity", "setting": "Danio rerio [1]", "value": 287.3},
      {"measurement": "Activity", "setting": "Danio rerio [2]", "value": 142.3},
      {"measurement": "Ratio", "setting": "[3]", "value": 4},
      {"measurement": "Activity", "setting": "[4]", "value": 0.9, "unit": "%"},
      {"measurement": "Activity", "setting": "[5]", "value": "Non-Toxic"},
      {"measurement": "Activity", "setting": "Danio rerio [6]", "value": 25, "unit": "%"},
      {"measurement": "Activity", "setting": "Danio rerio [7]", "value": 12.5, "unit": "µM"},
      {"measurement": "Activity", "setting": "[8]", "value": "Toxic"},
      {"measurement": "Activity", "setting": "Danio rerio [9]", "value": 0.89, "unit": "%"},
      {"measurement": "Activity", "setting": "Danio rerio [10]", "value": 0.85, "unit": "%"},
      {"measurement": "Activity", "setting": "[11]", "value": 0.86, "unit": "%"},
      {"measurement": "Activity", "setting": "Danio rerio [12]", "value": 153.5},
      {"measurement": "Activity", "setting": "Danio rerio [13]", "value": 1.34, "unit": "%"},
      {"measurement": "Activity", "setting": "[14]", "value": 1.31, "unit": "%"},
      {"measurement": "Activity", "setting": "Danio rerio [15]", "value": 1.2, "unit": "millimeter/sec"},
      {"measurement": "Activity", "setting": "Danio rerio [16]", "value": 3.31, "unit": "%"},
      {"measurement": "Activity", "setting": "[17]", "value": 0.76, "unit": "%"},
      {"measurement": "Time", "setting": "Danio rerio [18]", "value": 18.46, "unit": "s"},
      {"measurement": "Activity", "setting": "[19]", "value": 0.78, "unit": "%"},
      {"measurement": "Activity", "setting": "Danio rerio [20]", "value": 1.08, "unit": "%"},
      {"measurement": "Activity", "setting": "[21]", "value": 1.14, "unit": "%"},
      {"measurement": "Activity", "setting": "[22]", "value": 0.7, "unit": "%"},
      {"measurement": "Activity", "setting": "Danio rerio [23]", "value": 0.53, "unit": "%"},
      {"measurement": "Activity", "setting": "[24]", "value": 1.67, "unit": "%"},
      {"measurement": "Activity", "setting": "[25]", "value": "Toxic"}
    ]}
  ]
}
